Assay results published in US9382295B2, “Cyclic depsipeptide compounds and their uses” (Cypralis Limited, priority 2012, dated 2016).

What was measured:
cyclophilin D (Cyp D) = cyclophilin D (Cyp D) (Homo sapiens, UniProt P30405); experiment: Protease-free PPIase assay, cyclophilin D; assay type: biochemical
Procedure, shortened: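 Cis-trans isomerization of a succinimide-peptide substrate (60 µM final) by 2 nM enzyme was followed at 330 nm in 35 mM HEPES pH 7.8 with 50 µM DTT, stirred at 10.0 °C, DMSO ≤0.5%. First-order rate constants minus background were fitted against inhibitor concentration to give Ki.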

[1] = biological target: T1, calcineurin/cyclophilin A (Homo sapiens, UniProt P62937+P63098+Q08209); experiment: Calcineurin phosphatase (CaN) assay in the presence of Cyp A; assay type: biochemical; conditions: inhibitor in 1:1 complex with Cyp A; read-out: CaN + CypA (IC50 in the calcineurin/cyclophilin A assay)
T1 construct: purchased Enzo Life Sciences (calcineurin, calmodulin); Sigma (CypA) BML-AK804; C3805
T1 sequence (P63098 whole entry, other chains not shown): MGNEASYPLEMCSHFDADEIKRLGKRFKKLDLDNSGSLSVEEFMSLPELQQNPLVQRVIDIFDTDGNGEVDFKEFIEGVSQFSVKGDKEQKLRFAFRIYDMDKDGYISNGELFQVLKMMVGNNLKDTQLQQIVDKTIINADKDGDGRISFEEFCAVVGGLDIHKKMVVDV
T1 sequence (P62937 whole entry, other chains not shown): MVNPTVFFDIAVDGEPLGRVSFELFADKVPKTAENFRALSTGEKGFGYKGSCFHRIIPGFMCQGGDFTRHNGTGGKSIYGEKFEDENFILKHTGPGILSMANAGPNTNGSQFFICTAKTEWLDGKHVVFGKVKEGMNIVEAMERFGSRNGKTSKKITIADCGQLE
From the text: **Calcineurin Phosphatase (CaN) Assay The calcineurin phosphatase assay is a means for estimating the immunosuppressive potential of a test compound. Calcineurin is a serine-threonine protein phosphatase that on activation dephosphorylates members of the nuclear factor of activated T cells (NFAT), which are important in T lymphocyte activation. […] To investigate the immunosuppressive potential of exemplary compounds of Formula 1, which are novel cycloundecadepsipeptide compounds, their ability to inhibit calcineurin activity was measured in the presence of Cyp A. The CaN assay kit used is based on a colorimetric assay for measuring calcineurin phosphatase activity, and it is commercially available (Enzo Life Sciences and Calbiochem). Calmodulin is also required for calcineurin activity and RH phosphopeptide is used as an efficient peptide substrate for calcineurin. […] The detection of free phosphate released is based on the classic Malachite green assay. Enzo Life Sciences CaN Assay Kit: BML-AK804 2× assay buffer: 100 mM Tris, pH7.5, 200 mM NaCl, 12 mM MgCl2, 1 mM DTT, 0.05% NP-40, 1 mM CaCl2 Calmodulin (Human, Recombinant): was thawed on ice, diluted 1:50 with 2× assay buffer, and then stored on ice. Calcineurin: was thawed quickly, stored on ice immediately, diluted 1:12.5 with 1× assay buffer, and then stored on ice. R-II Substrate: 915 μL ultrapure water (UPW) was added to the 1.5 mg vial substrate to give a final concentration of 0.75 mM. Inhibitors: 2.5 mM inhibitor in 100% DMSO. Cyp A: recombinant human CypA (Sigma C3805), 1 mg/ml; Recombinant 6-his tagged CypA prepared by the Univ. of Edinburgh was also used. […] Inhibitor dilutions: inhibitor compounds were diluted in UPW in polypropylene low-binding 96 well plates at 5x the final assay concentration. For samples ‘without Cyp A’, a 4-point dilution series of the inhibitor was prepared in duplicate to obtain a final assay concentration of 10, 1, 0.1 and 0.01 μM. […] Cs A inhibitor controls were also prepared to obtain a final concentration of 10 μM Cs A with and without 10 μM Cyp A. Assay Setup: using the half area 96 well plates supplied with the kit, 10 μl UPW was added to duplicate wells to provide the non-inhibited control. 10 μl of the inhibitor or the inhibitor/Cyp A complex was added to the appropriate sample wells. 25 μl of the 2× assay buffer with CaM was added to all wells, then 5 μl of CaN was added to all wells (40 U per well final concentration) except duplicate ‘no calcineurin blank’ wells to which 5 μL 1× assay buffer was added. […] The reaction was started by the addition of 10 μl RII-peptide (0.15 mM final concentration). The reaction was allowed to proceed at 30° C. for a time period in which the reaction is linear for about 60 minutes. The reaction was then terminated by adding 100 μl of the Malachite Green reagent. […] The data were analyzed by subtracting ‘no Calcineurin blank’ from all the absorbance readings and plotting the background corrected absorbances against Log10 inhibitor concentration. A sigmoidal-dose response curve was fitted to the data using GraphPad Prism Software. […] It exerts its immunosuppressive activity by binding to cyclophilin A to form a complex, which then binds to calcineurin and thereby inhibits calcineurin activity.

[2] = Water solubility assay (pH 7.8 buffer); assay type: physicochemical; conditions: pH 7.8
Procedure, shortened: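 DMSO stocks were diluted into 35 mM HEPES pH 7.8 to final 0–100 μM with 1% DMSO, in triplicate. Plates were shaken 18 h at 25 °C, then precipitation was detected as increased absorbance at 650 nm. Values give the concentration (μM) at which the compound remains in solution.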

Sequence of cyclophilin D (Cyp D) (P30405 30-207): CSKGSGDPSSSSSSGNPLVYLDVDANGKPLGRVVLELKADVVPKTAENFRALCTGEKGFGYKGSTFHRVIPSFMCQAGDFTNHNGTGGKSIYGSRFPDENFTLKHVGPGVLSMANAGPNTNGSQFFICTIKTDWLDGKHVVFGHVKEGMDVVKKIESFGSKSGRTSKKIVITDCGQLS

Ki (cyclophilin D (Cyp D)): 6.5 nM
IC50 [1]: > 1000 nM
solubility at 18 h [2]: > 100 µM
Compound: CC(C)CC1NC(=O)[C@H](CC(C)C)N(C)C(=O)CN(C)C(=O)C([C@@H](C)O)NC(=O)C([C@H](O)[C@H](C)CCN2CCOCC2)N(C)C(=O)C(C(C)C)N(C)C(=O)C(CC(C)C)NC(=O)C(CC(C)C)N(C)C(=O)C(C(C)C)OC(=O)C(C)NC(=O)C(CC(C)C)N(C)C1=O (stereo in doubt) [Example 2, cyclo-[(3R,4R,5S)-4-(hydroxy)-3-methyl-5-(methylamino)-1-N-morpholino-hexanoic acid-Thr-Sar-MeLeu-Leu-MeLeu-Ala-D-Hiv-MeLeu-Leu-MeVal]]
